Results: patent US12440507B2, “Sting inhibitors and their therapeutic uses” (CENTRE NATIONAL DE LA RECHERCHE SCIENTIFIQUE, priority 2019, dated 2025)

Assays:
[1] = molecular target: T1, GST-STING139-378 (Mus musculus, UniProt Q3TBT3); assay: Pull-down using biotinylated Ap4A and recombinant proteins (in vitro binding and competition); conditions: for Competition for the binding of STING to biotinylated Ap4A: 10-fold excess of the competitor, 1 h at 4° C.
T1 construct: GST-STING (aa 139-378); made in house; host or cells: Escherichia coli BL21
T1 sequence (Q3TBT3 139-378): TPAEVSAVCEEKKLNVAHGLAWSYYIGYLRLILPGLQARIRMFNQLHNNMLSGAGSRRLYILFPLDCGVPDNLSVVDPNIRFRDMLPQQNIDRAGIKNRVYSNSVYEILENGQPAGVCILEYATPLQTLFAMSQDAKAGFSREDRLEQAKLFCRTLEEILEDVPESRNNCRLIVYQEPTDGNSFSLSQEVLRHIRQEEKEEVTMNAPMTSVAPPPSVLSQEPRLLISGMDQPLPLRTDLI

[2] = system: MEF^Trex1−/−; assay: Ifnβ / type I interferon mRNA levels (RT-qPCR) in treated MEF^Trex1−/−; format: cell-based, mouse; conditions: 500 μM
Experimental: (§1) RNA extraction and RT-qPCR RNA was extracted using Trizol (Invitrogen) and treated with TURBO DNase (Ambion) according to manufacturers' protocols. Reverse transcription (SuperScript IV reverse transcriptase; Invitrogen) and qPCR using specific primers were performed using SYBR GREEN (Takara) master mix and LightCycler 480 cycler (Roche). mRNA levels were normalized to Gapdh mRNA levels except in zebrafish experiments where mRNA levels were normalized to zebrafish actin (zactin).
(§2) Cells were transfected with JetPrime transfection reagent (Polyplus) at 1:2 ratio with various nucleic acids at 2 μg/ml. […] Ap4A or STAN-1 (Sigma Aldrich) were used at 500 μM in Optimem.
Next, to test whether Ap4A inhibits inflammatory responses via a STING-dependent mechanism, the inventors used three-prime repair exonuclease 1 (Trex1)-deficient mouse embryonic fibroblasts (MEF^Trex1−/−—FIG. S1D), as these are a well-characterized model of pathologic chronic inflammation with STING-dependent elevated Ifnβ levels (FIG. S1D)—(15, 16). First, the inventors treated MEF^Trex1−/− with Ap4A for 45, 90 and 180 min. […] To further assess the impact of Ap4A on STING activation and to avoid potential side effects of the addition of exogenous Ap4A to cells, the inventors next performed experiments where they modulate the expression levels of LysRS, the main producer of Ap4A (9, 10). […]

[3] = system: MEF^STING−/−; assay: DMXAA-induced Ifnβ expression in STING knockout MEF; format: cell-based, mouse; conditions: 200 μM DMXAA, treated with Ap4A for 2 h
Experimental: Data are normalized to non-treated control.
as §1, §2

[4] = system: WT-MEF; assay: DMXAA-induced Ifnβ expression in WT-MEF; format: cell-based, mouse; conditions: 200 μM DMXAA, treated with Ap4A for 2 h
Experimental: Data are normalized to non-treated control. Unpaired t-test. **: p<0.005.
as §1, §2

Row | Compound | Competition for the binding of STING to biotinylated Ap4A [1] | type I interferon expression (IFNα and IFNβ mRNA levels) ([2]; 3 hrs, RT-qPCR) | Ifnβ mRNA levels ([2]; Ap4A 45, 90 and 180 min, STAN-1 3 h, versus untreated) | Interaction of STING139-378 with Streptavidin-immobilized biotinylated Ap4A ([1]; Western blotting of pull-down) | Ability of DMXAA to induce Ifnβ expression on co-treatment [3] | Ability of DMXAA to induce Ifnβ expression on co-treatment [4]
1 | cyclic GMP-AMP [cGAMP] | displaced | – | – | – | – | –
2 | Nc1ncnc2c1ncn2[C@@H]1O[C@H](COP(=O)(O)OP(=O)(O)OP(=O)(O)OP(=O)(O)OC[C@H]2O[C@@H](n3cnc4c(N)ncnc43)[C@H](O)[C@@H]2O)[C@@H](O)[C@H]1O [Ap4A, Diadenosine tetraphosphate] | specific | decreases type I interferon expression | decreased Ifni mRNA levels | interacts | no decrease was observed | by half
